Reference: patent US9663486B2, “Selectively substituted quinoline compounds” (EISAI R&D MANAGEMENT CO., LTD., priority 2013, dated 2017)

These molecules were tested on Human TLR7/8 (assay: Human PBMC cell-based assay, TLR7/8 (RNA-Ig), cytokine ELISA). Conditions: PBMC assay data summary; ligand and analyte not given; read-out: Human PBMCs IC50.
Method: Human peripheral blood mononuclear cells (PBMC) were isolated from freshly-drawn heparinized (10 USP units/ml, Hospira, Lakeforest, Ill.) healthy donor whole blood by density gradient (Histopaque® 1077, Sigma, Inc., St. Louis, Mo.). Briefly, 25 ml blood was diluted with 15 ml PBS (without Ca^2+, Mg^2+) in a 50 ml conical tube, and 12 ml Histopaque was underlaid using a spinal needle. Tubes were centrifuged for 45 minutes at 1200 rpm (350×g), and PBMC were collected from the buffy coat. Cells were then washed twice in PBS, and red blood cells were lysed by suspension in 5 ml ammonium chloride solution (1× Red Blood Cell Lysis Buffer, eBioscience) for 5 minutes at room temperature. After a final wash in PBS, PBMC were resuspended at a final concentration of 2×10^6/ml in RPMI-1640 media with L-glutamine (Invitrogen) and supplemented with 25 mM HEPES (Mediatech, Inc, Manassas Va.), 10% fetal bovine serum (HyClone, Logan, Utah), and Penicillin-Streptomycin-Glutamine (Mediatech) and plated at 100 ul/well (2×10^5 cells/well) in tissue culture treated 96-well plates (Falcon).
Antagonist compounds solubilized and serial diluted in 100% DMSO were added in triplicate to cells to yield a final concentration of 0.1% DMSO (v/v). Hydroxychloroquine (Acros Organics) solubilized and serial diluted in PBS was added in triplicate to cells. PBMC were incubated with antagonist compounds or HCQ for 30 minutes at 37° C., 5% CO2 before adding various TLR agonist reagents in 100 ul complete media per well as follows (final concentrations indicated): R848 (Resiquimod; GLSynthesis, Worcester, Mass.) at 1 uM for TLR7 and TLR8, Pam3CSK4 (InvivoGen) at 50 ng/ml for TLR1/2, LPS (Sigma) at 10 ng/ml for TLR4, and CpG-2216 (InvivoGen) at 5 ug/ml for TLR9. […] The resulting “RNA-Ig” stimulus was incubated at room temperature for 15-30 minutes before adding to cells. PBMC were incubated with the various TLR agonists for 20 hours at 37° C., 5% CO2. Cell culture supernatants were collected, and levels of various human cytokines were assessed as indicated by standard ELISA procedure according to the manufacturer's recommended protocol (BD Biosciences, Inc., San Diego, Calif.).

**Q.** How did the IC50 turn out when CN[C@@H]1C[C@H](C)CN(c2ccc(C#N)c3ncccc23)C1 [ER-897184] was run?
**A.** 4 nM

**Q.** CC(C)CC(N)C(=O)NC1CC(C)CN(c2ccc(C#N)c3ncccc23)C1 (stereo not drawn) [ER-897999] was tested. Which IC50 did it give?
**A.** 2 nM

**Q.** With CC1CC(NC(=O)C(N)Cc2cccnc2)CN(c2ccc(C#N)c3ncccc23)C1 (stereo not drawn) [ER-898360] as the molecule, how does the IC50 read?
**A.** 11 nM

**Q.** Which IC50 does the source give for CC1CC(O)CN(c2ccc(C#N)c3ncccc23)C1 (stereo not drawn) [ER-896464] here?
**A.** 6 nM

**Q.** C[C@H]1C[C@@H](NCc2cn(C)cn2)CN(c2ccc(C#N)c3ncccc23)C1 [ER-899552] was tested. Which IC50 did it give?
**A.** 104 nM

**Q.** How did the IC50 turn out when CC1(C)C[C@@H](N)CN(c2ccc(C#N)c3ncccc23)C1 [ER-895386] was run?
**A.** 17 nM

**Q.** How did the IC50 turn out when CC1CC(NC(=O)CO)CN(c2ccc(C#N)c3ncccc23)C1 (stereo not drawn) [ER-897971] was run?
**A.** 5 nM

**Q.** CCOC(=O)CN(CC(=O)OCC)C1CC(C)CN(c2ccc(C#N)c3ncccc23)C1 (stereo not drawn) [ER-899505] was tested. Which IC50 did it give?
**A.** 127 nM

**Q.** For COCCNC1CC(C)CN(c2ccc(C#N)c3ncccc23)C1 (stereo not drawn) [ER-897275], which IC50 is on record?
**A.** 6 nM

**Q.** How did the IC50 turn out when CC1CC(NC(=O)C(N)C(C)C)CN(c2ccc(C#N)c3ncccc23)C1 (stereo not drawn) [ER-897987] was run?
**A.** 12 nM

**Q.** With CC(=O)NC1CC(C)CN(c2ccc(C#N)c3ncccc23)C1 (stereo not drawn) [ER-896310] as the molecule, how does the IC50 read?
**A.** 63 nM

**Q.** For CNC(C(=O)NC1CC(C)CN(c2ccc(C#N)c3ncccc23)C1)C(C)C (stereo not drawn) [ER-898334], which IC50 is on record?
**A.** 8 nM

**Q.** CC1CC(NC(=O)CN)CN(c2ccc(C#N)c3ncccc23)C1 (stereo not drawn) [ER-897274] was tested. Which IC50 did it give?
**A.** 7 nM

**Q.** How did the IC50 turn out when CC1CC(NC(=O)c2cccc(O)c2)CN(c2ccc(C#N)c3ncccc23)C1 (stereo not drawn) [ER-897973] was run?
**A.** 11 nM

**Q.** For CC(C)CC(N)C(=O)NC1CC(C)CN(c2ccc(C#N)c3ncccc23)C1 (stereo not drawn) [ER-897998], which IC50 is on record?
**A.** 2 nM

**Q.** For CC1CC(NC(=O)CS(C)(=O)=O)CN(c2ccc(C#N)c3ncccc23)C1 (stereo not drawn) [ER-897978], which IC50 is on record?
**A.** 14 nM

**Q.** How did the IC50 turn out when C[C@H]1C[C@@H](NCc2ncco2)CN(c2ccc(C#N)c3ncccc23)C1 [ER-899551] was run?
**A.** 24 nM

**Q.** Which IC50 does the source give for CCOC(=O)CNC1CC(C)CN(c2ccc(C#N)c3ncccc23)C1 (stereo not drawn) [ER-899504] here?
**A.** 81 nM

**Q.** For COCC(N)C(=O)NC1CC(C)CN(c2ccc(C#N)c3ncccc23)C1 (stereo not drawn) [ER-897990], which IC50 is on record?
**A.** 3 nM

**Q.** For C[C@H]1C[C@@H](N(C)C)CN(c2ccc(C#N)c3ncccc23)C1 [ER-889591], which IC50 is on record?
**A.** 42 nM

**Q.** Which IC50 does the source give for C[C@H]1C[C@@H](NC(=O)C2(N)COC2)CN(c2ccc(C#N)c3ncccc23)C1 [ER-899350] here?
**A.** 67 nM

**Q.** Which IC50 does the source give for C[C@H]1C[C@@H](NS(=O)(=O)CCN)CN(c2ccc(C#N)c3ncccc23)C1 [ER-899669] here?
**A.** 9 nM

**Q.** With CC1CC(NC(=O)C(N)c2ccccc2)CN(c2ccc(C#N)c3ncccc23)C1 (stereo not drawn) [ER-898350] as the molecule, how does the IC50 read?
**A.** 20 nM

**Q.** For CC1CC(NC(=O)C(O)C(C)C)CN(c2ccc(C#N)c3ncccc23)C1 (stereo not drawn) [ER-897972], which IC50 is on record?
**A.** 17 nM
